Like-named read-outs stand apart in the source and are kept apart here.
System: NCI-60 standardized human tumor cell line panel
Experiment: cells
Format: cell-based
Details: for GI50: Homo sapiens

Compound: COc1cc2cc(C(=O)N3C[C@@H](CCl)c4c3cc(OC(=O)N3CCN(C(=O)CCC(=O)N5CCN(C)CC5)[C@H]5CSSC[C@H]53)c3ccccc43)[nH]c2c(OC)c1OC [P-SS66C-CBI-TMI]
- GI50 (PC-3, PC-3, read-out: GI50): 480 nM
- GI50 (RPMI-8226, RPMI-8226, read-out: GI50): 140 nM
- GI50 (RPMI-8226, cell line RPMI-8226 (LE:RPMI-8226), TMI sheet, read-out: NCI-60 screening: Log(GI50) (converted)): 141 nM
- GI50 (RPMI-8226, cell line RPMI-8226 (LE:RPMI-8226), TMI sheet, read-out: NCI-60 screening: Raw GI50): 140 nM
- GI50 (RXF 393, RXF 393 (RE) cell line, log10 of GI50 in M, read-out: NCI-60 screening: Log(GI50) (converted)): 34.7 nM
- GI50 (RXF 393, RXF 393, read-out: GI50): 35 nM
- GI50 (SF-268, SF-268, read-out: GI50): 58 nM
- GI50 (SF-268, cell line SF-268 (CNS:SF-268), TMI sheet, read-out: NCI-60 screening: Log(GI50) (converted)): 58.9 nM
- GI50 (SF-295, SF-295, read-out: GI50): 110 nM
- GI50 (SF-295, cell line SF-295 (CNS:SF-295), TMI sheet, read-out: NCI-60 screening: Log(GI50) (converted)): 112 nM
- GI50 (SF-295, cell line SF-295 (CNS:SF-295), TMI sheet, read-out: NCI-60 screening: Raw GI50): 110 nM
- GI50 (SF-539, SF-539, read-out: GI50): 39 nM
- GI50 (SK-MEL-5, SK-MEL-5, read-out: GI50): 110 nM
- GI50 (SK-MEL-5, cell line SK-MEL-5 (ME:SK-MEL-5), TMI sheet, read-out: NCI-60 screening: Log(GI50) (converted)): 112 nM
- GI50 (SK-MEL-5, cell line SK-MEL-5 (ME:SK-MEL-5), TMI sheet, read-out: NCI-60 screening: Raw GI50): 110 nM
- GI50 (SK-MEL-28, SK-MEL-28, read-out: GI50): 160 nM
- GI50 (SK-MEL-28, cell line SK-MEL-28 (ME:SK-MEL-28), TMI sheet, read-out: NCI-60 screening: Log(GI50) (converted)): 158 nM
- GI50 (SK-OV-3, SK-OV-3 (OV) cell line, log10 of GI50 in M, read-out: NCI-60 screening: Log(GI50) (converted)): 72.4 nM
- GI50 (SK-OV-3, SK-OV-3, read-out: GI50): 72 nM
- GI50 (SN12C, SN12C (RE) cell line, log10 of GI50 in M, read-out: NCI-60 screening: Log(GI50) (converted)): 44.7 nM
- GI50 (SN12C, read-out: GI50): 45 nM
- GI50 (SNB-19, SNB-19, read-out: GI50): 91 nM
- GI50 (SNB-19, cell line SNB-19 (CNS:SNB-19), TMI sheet, read-out: NCI-60 screening: Log(GI50) (converted)): 91.2 nM
- GI50 (SR, read-out: GI50): 19 nM
- GI50 (SW-620, SW-620, read-out: GI50): 130 nM
- GI50 (SW-620, cell line SW-620 (CO:SW-620), TMI sheet, read-out: NCI-60 screening: Log(GI50) (converted)): 132 nM
- GI50 (SW-620, cell line SW-620 (CO:SW-620), TMI sheet, read-out: NCI-60 screening: Raw GI50): 130 nM
- GI50 (T47D, T-47D, read-out: GI50): 230 nM
- GI50 (T47D, cell line T-47D (BR:T-47D), TMI sheet, read-out: NCI-60 screening: Log(GI50) (converted)): 229 nM
- GI50 (TK-10, TK-10 (RE) cell line, log10 of GI50 in M, read-out: NCI-60 screening: Log(GI50) (converted)): 1050 nM
- GI50 (TK-10, TK-10, read-out: GI50): 1000 nM
- GI50 (U-251, U251, read-out: GI50): 81 nM
- GI50 (U-251, cell line U251 (CNS:U251), TMI sheet, read-out: NCI-60 screening: Log(GI50) (converted)): 81.3 nM
- GI50 (UACC-62, UACC-62, read-out: GI50): 140 nM
- GI50 (UACC-62, cell line UACC-62 (ME:UACC-62), TMI sheet, read-out: NCI-60 screening: Log(GI50) (converted)): 135 nM
- GI50 (UACC-62, cell line UACC-62 (ME:UACC-62), TMI sheet, read-out: NCI-60 screening: Raw GI50): 140 nM
- GI50 (UACC-257, UACC-257, read-out: GI50): 270 nM
- GI50 (UACC-257, cell line UACC-257 (ME:UACC-257), TMI sheet, read-out: NCI-60 screening: Log(GI50) (converted)): 275 nM
- GI50 (UACC-257, cell line UACC-257 (ME:UACC-257), TMI sheet, read-out: NCI-60 screening: Raw GI50): 270 nM
- GI50 (cell line M14 (ME:M14), TMI sheet, read-out: NCI-60 screening: Log(GI50) (converted)): 123 nM
- GI50 (cell line SF-539 (CNS:SF-539), TMI sheet, read-out: NCI-60 screening: Log(GI50) (converted)): 38.9 nM
- GI50 (cell line SR (LE:SR), TMI sheet, read-out: NCI-60 screening: Log(GI50) (converted)): 19.5 nM
- GI50 (cell line SR (LE:SR), TMI sheet, read-out: NCI-60 screening: Raw GI50): 19 nM
- NCI-60 screening: Log(RedIndex) (IGROV1 (OV) cell line, log10 reductive index vs P-CC60): 1.07
- GI50/IC50, mean (NCI-60 vs ProliFiler, 19 overlapping cell lines): 3.5
- NCI-60 screening: Log(RedIndex) (NCI-H460 (LC) cell line, log10 reductive index vs P-CC60): 1.36
- NCI-60 screening: Log(RedIndex) (NCI-H522 (LC) cell line, log10 reductive index vs P-CC60): 1.49
- NCI-60 screening: Log(RedIndex) (OVCAR-3 (OV) cell line, log10 reductive index vs P-CC60): 1.16
- NCI-60 screening: Log(RedIndex) (OVCAR-4 (OV) cell line, log10 reductive index vs P-CC60): 1.08
- NCI-60 screening: Log(RedIndex) (OVCAR-5 (OV) cell line, log10 reductive index vs P-CC60): 1.3
- NCI-60 screening: Log(RedIndex) (OVCAR-8 (OV) cell line, log10 reductive index vs P-CC60): 1.26
- NCI-60 screening: Log(RedIndex) (PC-3 (PR) cell line, log10 reductive index vs P-CC60): 0.82
- NCI-60 screening: Log(RedIndex) (RXF 393 (RE) cell line, log10 reductive index vs P-CC60): 1.48
- NCI-60 screening: Log(RedIndex) (SK-OV-3 (OV) cell line, log10 reductive index vs P-CC60): 1.47
- NCI-60 screening: Log(RedIndex) (SN12C (RE) cell line, log10 reductive index vs P-CC60): 1.43
- NCI-60 screening: Log(RedIndex) (TK-10 (RE) cell line, log10 reductive index vs P-CC60): 0.43
- NCI-60 screening: Log(RedIndex) (cell line A549/ATCC (LC:A549/ATCC), TMI sheet): 1.35
- NCI-60 screening: Log(RedIndex) (cell line BT-549 (BR:BT-549), TMI sheet): 1.04
- NCI-60 screening: Log(RedIndex) (cell line CCRF-CEM (LE:CCRF-CEM), TMI sheet): 0.57
- NCI-60 screening: Log(RedIndex) (cell line COLO 205 (CO:COLO 205), TMI sheet): 0.98
- NCI-60 screening: Log(RedIndex) (cell line EKVX (LC:EKVX), TMI sheet): 0.97
- NCI-60 screening: Log(RedIndex) (cell line HCC-2998 (CO:HCC-2998), TMI sheet): 1.45
- NCI-60 screening: Log(RedIndex) (cell line HCT-15 (CO:HCT-15), TMI sheet): 0.85
- NCI-60 screening: Log(RedIndex) (cell line HCT-116 (CO:HCT-116), TMI sheet): 0.99
- NCI-60 screening: Log(RedIndex) (cell line HL-60(TB) (LE:HL-60(TB)), TMI sheet): 1.19
- NCI-60 screening: Log(RedIndex) (cell line HOP-62 (LC:HOP-62), TMI sheet): 1.16
- NCI-60 screening: Log(RedIndex) (cell line HOP-92 (LC:HOP-92), TMI sheet): 1.15
- NCI-60 screening: Log(RedIndex) (cell line HT29 (CO:HT29), TMI sheet): 1.03
- NCI-60 screening: Log(RedIndex) (cell line K-562 (LE:K-562), TMI sheet): 0.88
- NCI-60 screening: Log(RedIndex) (cell line KM12 (CO:KM12), TMI sheet): 1.2
- NCI-60 screening: Log(RedIndex) (cell line LOX IMVI (ME:LOX IMVI), TMI sheet): 1.2
- NCI-60 screening: Log(RedIndex) (cell line M14 (ME:M14), TMI sheet): 1.09
- NCI-60 screening: Log(RedIndex) (cell line MALME-3M (ME:MALME-3M), TMI sheet): 1.07
- NCI-60 screening: Log(RedIndex) (cell line MCF7 (BR:MCF7), TMI sheet): 1.33
- NCI-60 screening: Log(RedIndex) (cell line MDA-MB-435 (ME:MDA-MB-435), TMI sheet): 1.08
- NCI-60 screening: Log(RedIndex) (cell line MOLT-4 (LE:MOLT-4), TMI sheet): 0.98
- NCI-60 screening: Log(RedIndex) (cell line NCI-H23 (LC:NCI-H23), TMI sheet): 1.4
- NCI-60 screening: Log(RedIndex) (cell line NCI-H226 (LC:NCI-H226), TMI sheet): 0.77
- NCI-60 screening: Log(RedIndex) (cell line RPMI-8226 (LE:RPMI-8226), TMI sheet): 1.02
- NCI-60 screening: Log(RedIndex) (cell line SF-268 (CNS:SF-268), TMI sheet): 1.42
- NCI-60 screening: Log(RedIndex) (cell line SF-295 (CNS:SF-295), TMI sheet): 1.15
- NCI-60 screening: Log(RedIndex) (cell line SF-539 (CNS:SF-539), TMI sheet): 1.53
- NCI-60 screening: Log(RedIndex) (cell line SK-MEL-5 (ME:SK-MEL-5), TMI sheet): 1.17
- NCI-60 screening: Log(RedIndex) (cell line SK-MEL-28 (ME:SK-MEL-28), TMI sheet): 1.35
- NCI-60 screening: Log(RedIndex) (cell line SNB-19 (CNS:SNB-19), TMI sheet): 1.39
- NCI-60 screening: Log(RedIndex) (cell line SR (LE:SR), TMI sheet): 1.15
- NCI-60 screening: Log(RedIndex) (cell line SW-620 (CO:SW-620), TMI sheet): 1.15
- NCI-60 screening: Log(RedIndex) (cell line T-47D (BR:T-47D), TMI sheet): 0.92
- NCI-60 screening: Log(RedIndex) (cell line U251 (CNS:U251), TMI sheet): 1.27
- NCI-60 screening: Log(RedIndex) (cell line UACC-62 (ME:UACC-62), TMI sheet): 1.05
- NCI-60 screening: Log(RedIndex) (cell line UACC-257 (ME:UACC-257), TMI sheet): 0.86
- mean reductive index (mean over NCI cell lines, vs P-CC60): 14
- reductive index (span over NCI cell lines, vs P-CC60): ≤ 30
